Assays:
[1] = biological target: T1, recombinant PtdSer decarboxylase PfPsd1 (Plasmodium falciparum, UniProt Q9GPP8); assay: PtdSer decarboxylase assay with recombinant enzyme; format: biochemical; conditions: increasing concentrations of G25
T1 construct: made in house
T1 sequence (Q9GPP8 1-362): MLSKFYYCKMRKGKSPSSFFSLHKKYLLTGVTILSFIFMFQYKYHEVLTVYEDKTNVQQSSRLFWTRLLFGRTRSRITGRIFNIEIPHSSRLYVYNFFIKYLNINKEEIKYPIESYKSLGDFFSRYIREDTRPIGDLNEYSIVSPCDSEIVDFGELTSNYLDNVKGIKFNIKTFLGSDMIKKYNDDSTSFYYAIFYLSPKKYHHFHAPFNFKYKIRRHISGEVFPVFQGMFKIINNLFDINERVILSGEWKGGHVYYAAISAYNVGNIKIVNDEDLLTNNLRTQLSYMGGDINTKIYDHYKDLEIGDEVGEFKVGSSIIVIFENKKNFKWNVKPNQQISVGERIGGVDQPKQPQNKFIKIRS
Procedure: FIG. 11A. Effect of G25 on the activity of purified recombinant PfPsd1 enzyme. PfPsd1 activity was determined as described in Materials and Methods by measuring the amount of [^14C]-PtdEtn formed from PtdSer. TLC analysis of PfPsd1-mediated conversion of PtdSer into PtdEtn in the absence and presence of increasing concentrations of G25 was performed.
FIG. 11B. Values are means±standard deviation of triplicate determination of two independent experiments.
Recombinant P. falciparum PtdSer decarboxylase was purified as described by Baunaure and colleagues (Baunaure, et al., 2004) The assay mixture (0.3 ml) contained 0.1 M potassium phosphate buffer (pH 6.8), 0.06% Triton X-100 (w/v), 200 μM L-[dipalmitoyl]phosphatidyl[3-^14C]-serine (1.35 mCi/mmol; Amersham), and the enzyme fraction containing recombinant protein of P. falciparum (240 μg). After incubation at 37° C. for 1 hour, the reaction was terminated by the addition of 400 μl chloroform. Chloroform-soluble materials were extracted, dried, and then dissolved in chloroform/methanol (9:1, v/v). Phospholipids were separated by Thin Layer Chromatography as described above. The radioactive phospholipids were localized and identified using appropriate standards, and radioactivity was quantified using the phosphoimager analyzer (Molecular Dynamics).
G25 inhibits the activity of recombinant P. falciparum PtdSer decarboxylase. […]

S. cerevisiae = assay: Liquid growth inhibition assay of S. cerevisiae (OD600); format: cell-based, Saccharomyces cerevisiae
Procedure: Strains and Growth Conditions: Wild-type (BY4741: Mata his3Δ1 leu2Δ0 met15Δ0 ura3Δ0) and mutant (hnm1Δ, psd1Δ, cki1Δ, pem1Δ, ept1Δ, cpt1Δ, eki1Δ, psd2Δ, pct1Δ, ect1Δ, pem2Δ) S. cerevisiae strains used in this study were purchased from Research Genetics (Invitrogen, USA). These strains were grown on YPD (1% yeast extract, 2% dextrose and 2% peptone) or synthetic complete medium (SD, 1.7% yeast nitrogen base, 5% ammonium sulfate and 2% dextrose). The Nigerian strain of P. falciparum was propagated in human red blood cells at 4% hematocrit by the method of Trager and Jensen (1976). Plate growth assays were performed by growing wild-type and mutant yeast strains in YPD to mid-log phase. Cultures were serially diluted 1:10 starting with a density of 3×10^7 cells/ml. The growth of cells was monitored by spotting 3 μl of each dilution onto solid medium in the absence or presence of 5 μM of G25.
Twenty-one analogs including first, second and third generation (E2a, E6, E9, E13, E24, F4, G2, G4, G5, G14, GI5, G25, H5, L1, L4, M34, M53, MS1, T3 and T4) compounds (provided by Dr. Henri Vial, City, Country) were tested (FIG. 4). The choice of the compounds was such that they represent all possible structural features introduced during the optimization process for enhancing antimalarial activity as determined using the combinatorial chemistry techniques.
The antimalarial drug G25 inhibits the growth of Saccharomyces cerevisiae. […] Growth inhibition was assessed by measuring the OD600 and comparing it to that of the wild-type strain grown under the same conditions in the absence of the compound. […] This IC50 value is in the range of the predicted intracellular concentration of G25 in P. falciparum due to the accumulative properties inside the infected erythrocytes.

Structure (SMILES): C[N+]1(CCCCCCCCCCCCCCCC[N+]2(C)CCCC2)CCCC1.[Br-].[Br-] [G25, 1,16-hexadecamethylenebis[N-methylpyrrolidinium]dibromide]
- activity of recombinant PfPsd1 [1]: steady decrease in the activity
- Inhibition of S. cerevisiae growth (in words) (S. cerevisiae; structure-activity comparison, Examples 2-4): inhibited
- IC50 (S. cerevisiae; wild-type strain BY4741, 1×10^4 cells/ml, liquid medium, 30° C., 16 h, read-out: IC50, inhibition of yeast growth): 2.5 µM
